From patent US20220133894A1, “BISPHOSPHONATE-LINKED COMPOUNDS” (OREGON HEALTH & SCIENCE UNIVERSITY, priority 2019, published 2022)

Key:
[1] = system: PC3-M cells; assay: three-day MTT cell growth assay, chemotherapy with or without KBU2046; type: cell-based, human; conditions: 10 μM KBU2046, 3 day growth assay, androgen independent PC3-M cells
Method: FIG. 1A depicts the effect of chemotherapy on the growth of androgen independent PC3-M PCa cells in vitro. Data are the mean±SEM (N=3 replicates) of cell viability in a 3 day growth assay in the presence of 10 μM KBU2046 or vehicle (control) treated with docetaxel or cabazitaxel. FIG. 1B depicts the effect of chemotherapy on the growth of androgen independent PCa cells in vivo. Mice received subcutaneous implants of PC3-M cells, were monitored until tumors were detectable (250 mm^3), and then treated daily with oral 80 mg KBU2046/kg (46) or vehicle (CO) and with weekly intraperitoneal docetaxel (doc) at 0 or 20 mg/kg, beginning on day 1, and tumor size measured. Data are mean±SEM, with N=20 mice per cohort.
To assess the impact of cytotoxic chemotherapy on PCa growth kinetics seven-day soft agar colony formation assays and three-day MTT cell growth inhibition assays were performed as described by us (Pavese et al., Cancer Lett 352, 179-186 (2014)). MTT assays were in replicates of N=3, and were repeated, soft agar assays were in replicates of N=2 and are presented as mean number of colonies, expressed as percent of untreated controls.

[2] = system: MDA-MB-231 human breast cancer cells; assay: 7 day colony formation assay, chemotherapy with or without KBU2046; type: cell-based
Method: To assess the impact of cytotoxic chemotherapy on PCa growth kinetics seven-day soft agar colony formation assays and three-day MTT cell growth inhibition assays were performed as described by us ([…] et al., Cancer Lett 352, 179-186 (2014)). MTT assays were in replicates of N=3, and were repeated, soft agar assays were in replicates of N=2 and are presented as mean number of colonies, expressed as percent of untreated controls. For PC3-M PCa and MDA-MB-231 triple negative breast cancer cells, data are the mean±SD (N=2 replicates) number of colonies in 7 day colony formation assays. All data are expressed as the percentage of untreated control cells. Cells were treated with 10 μM KBU2046 or vehicle (CO), and the indicated concentration and type of chemotherapy.

[3] = system: prostate specific antigen (PSA); assay: PSA expression by qRT/PCR in LNCaP cells; type: cell-based, human; conditions: LNCaP cells in androgen depleted media
Method: (§1) Cells were cultured in media depleted of androgen and after a washout of 72 hrs were treated with the synthetic androgen R1881, KBU2046, enzalutamide and/or vehicle (control), and resultant effects upon induction of the androgen-responsive gene, prostate specific antigen (PSA) were measured (FIG. 3A).
(§2) LNCaP or VCaP cells cultured in hormone free media were treated with R1881 (R), KBU2046 (46) and/or enzalutamide (E). (FIGS. 3A and 3B) Effects on AR-responsive gene expression. PSA expression was measured by qRT/PCR, normalized to GAPDH and expressed as a percent of control cells (N=3 replicates); * denotes P<0.05 for groups separated by bar. (FIGS. 3C and 3D) Effects on cell growth. Three day growth assays were performed. Data are the number of viable cells, expressed as % of control (N=3 replicates); * P<0.05 compared to control. (E) Effects on AR activation. Western blots of nuclear (N) and cytoplasmic (C) preparations of cell extracts were probed for AR, laminin 1 or α-tubulin. (FIGS. 3F and 3G) Effects on tumor outgrowth after androgen deprivation therapy. LNCaP/AR-luc cells were implanted subcutaneously (N=6 mice/cohort) or orthotopic (N=15 mice/cohort were implanted; N=5 yielded tumors) into castrate mice, treatment with KBU2046 began as noted, and weekly IVIS imaging performed. Data are tumor size, expressed as luminescence intensity. All data are expressed as mean±SEM.
(§3) RNA was isolated and qRT/PCR performed as previously described by us (Ding et al., J Biomol Tech 18, 321-330 (2007)). Resultant data were analyzed using the 2^−ΔΔt method (Livak et al., Methods 25, 402-408 (2001)), normalized to GAPDH, for the following primer/probe sets (ABI) PSA (Hs02576345_m1) and GAPDH (Hs99999905_m1). Assays were performed in triplicate, and were repeated.

[4] = system: prostate specific antigen (PSA); assay: PSA expression by qRT/PCR in VCaP cells; type: cell-based, human
Method: as §1, §2, §3

[5] = system: VCaP cells; assay: SRB growth inhibition assay, VCaP; type: cell-based, human; conditions: 10 μM enzalutamide, 10 μM KBU2046 added to control or enzalutamide treated cells, 72 hours
Method: as §2
Enzalutamide mediated growth inhibition was assessed using Sulforhodamine B (SRB) growth inhibition assays, were performed as previously described (49). In brief, LNCaP and VCaP cells were pre-incubated in charcoal-striped medium for 48 hours and then seeded (1.9×10^4) in 96-well plates. […]

[6] = system: LNCaP/AR-luc cells; assay: Castration resistant PCa subcutaneous implantation, tumor outgrowth; type: in vivo, mice; conditions: subcutaneous implants, 80 mg/kg KBU2046 oral, treatment from 4 weeks
Method: To complete our assessments of the androgen related paradigm, the effect of KBU2046 on resistance to hormone therapy was evaluated. The outgrowth of LNCaP/AR-luc cells in castrate mice is routinely utilized as a model to emulate the transition to a castration resistant phenotype (Tran et al., Science 324, 787-790 (2009)). In this model, tumor outgrowth is detectable ˜8 weeks post implantation, and growth kinetics are typically monitored until 16 weeks post implantation. […]
LNCaP or VCaP cells cultured in hormone free media were treated with R1881 (R), KBU2046 (46) and/or enzalutamide (E). […] PSA expression was measured by qRT/PCR, normalized to GAPDH and expressed as a percent of control cells (N=3 replicates); * denotes P<0.05 for groups separated by bar. […] Data are the number of viable cells, expressed as % of control (N=3 replicates); * P<0.05 compared to control. […] Data are tumor size, expressed as luminescence intensity. All data are expressed as mean±SEM.
Castration resistant PCa subcutaneous implantation: 6-7 week old male athymic mice received trans-scrotal bilateral orchiectomy with a single incision in the midline of scrotums under general anesthesia and then allowed to recover for 10 days. […] Twice weekly tumor measurements were performed and androgen receptor activity monitored biweekly through IVIS imaging.

[7] = system: MEK1/2 and ERK1/2; assay: Western blot of MEK1/2 and ERK1/2 phosphorylation in RANKL treated osteoclast cells; type: cell-based, mouse; conditions: 10 μM KBU2046, RANKL treated RAW 267.4 cells

With `O=C1c2ccccc2OCC1c1ccc(F)cc1` (centres unmarked) [KBU2046, 3-(4-fluorophenyl)chroman-4-one] the “effect of KBU2046 on the ability of docetaxel or cabazitaxel to inhibit cell growth” value [1] was “did not affect”, the “effect on activity of adriamycin” value ([2]; 10 μM KBU2046, MDA-MB-231 cells, FIG. 13) was “does not inhibit” and the “effect on activity of vinblastine” value ([2]; 10 μM KBU2046, MDA-MB-231 cells, FIG. 15) was “does not inhibit”. For the same compound, the “effect on activity of taxol” value ([2]; 10 μM KBU2046, MDA-MB-231 cells, FIG. 17) was “does not inhibit”, the “interference upon cytotoxic action of adriamycin, taxol and vinblastine” value ([2]; KBU2046 co-administered, MDA-MB-231 cells) was “lack of interference” and the PSA expression [3] was “no significant effect”. The “decrease of PSA expression in R1881 treated cells” value ([4]; VCaP cells, R1881 treated) was 36%, the “relative increase of PSA expression in control cells” value ([4]; VCaP control cells, very low baseline) was 14% and the cell growth [5] was “no significant effect”. For the same compound, the “tumor growth (outgrowth in castrate mice)” value [6] was “did not alter” and the “MEK1/2 and ERK1/2 phosphorylation” value [7] was “inhibition”.
